# From US20210403860A1 (priority 2018, published 2021)
# Where “and” joins values, the source holds several entries; their conditions need not be identical. Identical values can stand only once. Like-named read-outs stand apart in the source and are kept apart here.
# Tests used:
# [1] = tested on: Ca. L. asiaticus; format: cell-based; conditions: 10 mM glucose and 100 μg/ml amikacin
# [2] = tested on: Ca. L. asiaticus; conditions: cited from earlier work
# [3] = tested on: Ca. L. asiaticus; format: cell-based, Candidatus Liberibacter asiaticus (strain psy62); conditions: for fold change in Ca. L. asiaticus GE: 7 days
# [4] = tested on: Pseudomonas putida; format: cell-based
# [5] = tested on: Stenotrophomonas bentonitica; format: cell-based
# [6] = tested on: Bacillus cereus; format: cell-based
# [7] = tested on: Lysinibacillus mangiferihumi; format: cell-based
# [8] = tested on: Clostridium argentinense; format: cell-based
# [9] = tested on: Comamonas terrigena; format: cell-based
# [10] = tested on: Pantoea cypripedii; format: cell-based
# [11] = tested on: Paenibacillus silvae; format: cell-based
# [12] = tested on: Brevibacillus gelatini; format: cell-based
# [13] = tested on: Flavobacterium acidificum; format: cell-based
# [14] = tested on: Pseudomonadaceae; format: cell-based
# [15] = tested on: Bacillus cereus; conditions: cited from earlier work
# [16] = tested on: Bacillaceae; format: cell-based
compound,measurement,setting,value
NCC[C@H](O)C(=O)N[C@@H]1C[C@H](N)[C@@H](O[C@H]2O[C@H](CN)[C@@H](O)[C@H](O)[C@H]2O)[C@H](O)[C@H]1O[C@H]1O[C@H](CO)[C@@H](O)[C@H](N)[C@H]1O [amikacin],"Ca. L. asiaticus GE, day 3",[1]; 10% O2 (FIG. 13),1.15×10^5±2.8×10^4 GE
same,fold potentiation in Ca. L. asiaticus DNA content vs glucose alone,[1]; three days,3.03 fold
same,overall fold increase in GE compared to starting material (d0),[1]; three days,11.1 fold
same,activity against / sensitivity of Ca. L. asiaticus,[2],does not appear to be sensitive
C[C@H]1O[C@H](O[C@H]2[C@H](O)[C@@H](O)[C@@H](O)[C@H](O)[C@@H]2O)[C@@H](N)C[C@@H]1NC(=N)C(=O)O [kasugamycin],enhancement of Ca. L. asiaticus growth,[3]; kasugamycin treatment,did not enhance
same,proportion of OTU 1,[4],0.599
same,proportion of OTU 2,[5],0.136
same,proportion of OTU 3,[6],0.001
same,proportion of OTU 4,[7],0.000
same,proportion of OTU 5,[8]; Kag 0.25 μg/ml,0.030
same,proportion of OTU 6,[9],0.000
same,proportion of OTU 7,[10],0.005
same,proportion of OTU 8,[11],0.000
same,proportion of OTU 9,[12],0.001
same,proportion of OTU 10,[13],0.056
[H]/N=C(/N)N[C@H]1[C@H](O)[C@@H](O)[C@H](O[C@@H]2O[C@@H](C)[C@](O)(C=O)[C@H]2O[C@@H]2O[C@@H](CO)[C@H](O)[C@@H](O)[C@@H]2NC)[C@@H](N/C(N)=N\[H])[C@@H]1O [streptomycin],fold change in Ca. L. asiaticus GE,"[3]; 0.02 μg/ml streptomycin, vs non-antibiotic control",5.56±0.15 fold and ~6 fold
same,Ca. L. asiaticus growth compared to untreated cultures,[3]; streptomycin >0.5 μg/ml,reduced
same,proportion of OTU 4,[7],0.000
same,proportion of OTU 5,[8]; Str 0.02 μg/ml,0.002
same,proportion of OTU 5,[8]; Str 0.05 μg/ml,0.007
same,proportion of OTU 5,[8]; Str 0.5 μg/ml,0.154
same,proportion of OTU 5,[8]; Str 1.00 μg/ml,0.131
same,proportion of OTU 5,[8]; Str 2.00 μg/ml,0.104
same,proportion of OTU 8,[11],0.000
same,proportion of OTU 10,[13],0.000
same,decrease of proportion of Pseudomonadaceae compared to non-antibiotic samples,[14],5.5 times and 9.8 times
same,concentration sub-inhibitory to Bacillus cereus,[15],< 2.9 µg/mL
CN[C@H](CC(C)C)C(=O)N[C@H]1C(=O)N[C@@H](CC(N)=O)C(=O)N[C@H]2C(=O)N[C@H]3C(=O)N[C@H](C(=O)N[C@H](C(=O)O)c4cc(O)cc(O)c4-c4cc3ccc4O)[C@H](O)c3ccc(c(Cl)c3)Oc3cc2cc(c3O[C@@H]2O[C@H](CO)[C@@H](O)[C@H](O)[C@H]2O[C@H]2C[C@](C)(N)[C@H](O)[C@H](C)O2)Oc2ccc(cc2Cl)[C@H]1O [vancomycin],fold change in Ca. L. asiaticus GE,"[3]; 50 μg/ml vancomycin, vs non-antibiotic control",7.35±0.27 fold
same,proportion of OTU 1,[4],0.479 and 0.469 and 0.398 and 0.318 and 0.527
same,proportion of OTU 5,[8]; Van 25 μg/ml,0.120
same,proportion of OTU 5,[8]; Van 35 μg/ml,0.101
same,proportion of OTU 5,[8]; Van 50 μg/ml,0.071
same,proportion of OTU 5,[8]; Van 75 μg/ml,0.039
same,proportion of OTU 5,[8]; Van 100 μg/ml,0.004
same,proportion of OTU 8,[11],0.000
same,proportion of OTU 9,[12],0.000
polymyxin B,fold change in Ca. L. asiaticus GE,"[3]; 2 μg/ml polymyxin B, vs non-antibiotic control",2.28±0.15 fold
same,fold change in Ca. L. asiaticus GE,"[3]; 4 μg/ml polymyxin B, vs non-antibiotic control",4.54±0.83 fold
same,fold change in Ca. L. asiaticus GE,"[3]; <1 μg/ml polymyxin B, vs untreated cultures",0.03±0.13 fold
same,proportion of OTU 4,[7],0.000
same,proportion of OTU 5,[8]; Pmb 0.5 μg/ml,0.194
same,proportion of OTU 5,[8]; Pmb 2 μg/ml,0.001
same,proportion of OTU 5,[8]; Pmb 4 μg/ml,0.011
same,proportion of OTU 8,[11],0.000
same,reads that were Bacillaceae members,[16],70.7%
same,decrease of proportion of Pseudomonadaceae compared to non-antibiotic samples,[14],30.5 times
same,concentration sub-inhibitory to Bacillus cereus,[15],< 0.65 µg/mL
same,activity against / sensitivity of Ca. L. asiaticus,[2],not active
